Reference: US10770169B2, “Method of providing a treatment to a subject based on a dynamic pathway map” (THE REGENTS OF THE UNIVERSITY OF CALIFORNIA, priority 2010, dated 2020)
Read-outs that look alike come from different tables or passages of the source.

Experiments:
[1] = test system: luminal, basal, claudin-low and ERBB2AMP breast cancer cell lines; assay: Associations of clinically relevant subtypes and response (non-parametric ANOVA or t-test on GI50 ranks); assay type: cell-based, human; conditions: for Subtype specificity: Table 6, most sensitive subtype, FDR p<0.20
Source text: A central premise of this study is that associations between responses and molecular subtypes observed in preclinical cell line analyses will be recapitulated in the clinic in instances where the predictive molecular features in the cell lines are mirrored in human tumors. We established response-subtype associations by using non-parametric ANOVAs to compare […] values across transcriptional and genomics subtypes.
Differences between GI50s of the groups were compared with a non-parametric ANOVA or t-test, as appropriate, on the ranks. We combined the p-values for the three sets of tests and used false discovery rate (FDR) to correct for multiple testing. For the three-sample test, we performed a post-hoc analysis on the compounds with a significant class effect by comparing each group to all others to determine which group was most sensitive. The p-values for the post-hoc test were FDR-corrected together. In all cases, FDR p<0.20 was deemed significant. […] Analyses were performed in R.

[2] = test system: panel of 55 breast cancer cell lines; assay: Cell growth inhibition assay (Cell Titer Glo, 72 h, 9 doses; GI50, TGI, LC50); assay type: cell-based, human; conditions: Homo sapiens, read-out: GI50 (converted)

COc1cc2ncnc(Nc3ccc(F)c(Cl)c3)c2cc1OCCCN1CCOCC1 [Gefitinib]
association of response with ERBB2 amplification [1]: positively associated with ERBB2 amplification | Subtype specificity [1]: ERBB2AMP | GI50 ([2]; AU565, cell line AU565): 1.07 µM | GI50 ([2]; BT-474, cell line BT474): 0.724 µM | GI50 ([2]; BT-483, cell line BT483): 6.17 µM | GI50 ([2]; BT-549, cell line BT549): 15.1 µM | GI50 ([2]; CAMA-1, cell line CAMA1): 26.9 µM | GI50 ([2]; HCC38, cell line HCC38): 28.2 µM | GI50 ([2]; HCC70, cell line HCC70): 17.4 µM | GI50 ([2]; HCC1143, cell line HCC1143): 11.7 µM | GI50 ([2]; HCC1187, cell line HCC1187): 30.2 µM | GI50 ([2]; HCC1395, cell line HCC1395): 7.08 µM | GI50 ([2]; HCC1419, cell line HCC1419): 2.75 µM | GI50 ([2]; HCC1428, cell line HCC1428): 10.7 µM | GI50 ([2]; HCC1500, cell line HCC1500): 8.13 µM | GI50 ([2]; HCC1806, cell line HCC1806): 4.68 µM | GI50 ([2]; HCC1937, cell line HCC1937): 8.32 µM | GI50 ([2]; HCC1954, cell line HCC1954): 2.04 µM | GI50 ([2]; MCF7, cell line MCF7): 26.9 µM | GI50 ([2]; MDA-MB-157, cell line MDAMB157): 15.1 µM | GI50 ([2]; MDA-MB-231, cell line MDAMB231): 33.1 µM | GI50 ([2]; MDA-MB-361, cell line MDAMB361): 6.46 µM | GI50 ([2]; MDA-MB-415, cell line MDAMB415): 7.41 µM | GI50 ([2]; MDA-MB-436, cell line MDAMB436): 33.1 µM | GI50 ([2]; MDA-MB-453, cell line MDAMB453): 7.41 µM | GI50 ([2]; MDA-MB-468, cell line MDAMB468): 25.1 µM | GI50 ([2]; SK-BR-3, cell line SKBR3): 2.82 µM | GI50 ([2]; SUM52PE, cell line SUM52PE): 7.94 µM | GI50 ([2]; SUM149PT, cell line SUM149PT): 2.88 µM | GI50 ([2]; SUM185PE, cell line SUM185PE): 20.9 µM | GI50 ([2]; SUM-159-PT, cell line SUM159PT): 8.51 µM | GI50 ([2]; T47D, cell line T47D): 15.8 µM | GI50 ([2]; UACC-893, cell line UACC893): 1.15 µM | GI50 ([2]; ZR-75-1, cell line ZR751): 32.4 µM | GI50 ([2]; ZR-75B, cell line ZR75B): 21.4 µM | GI50 ([2]; cell line 600MPE): 7.24 µM | GI50 ([2]; cell line HCC2185): 9.33 µM | GI50 ([2]; cell line HCC3153): 33.1 µM | GI50 ([2]; cell line LY2): 27.5 µM | GI50 ([2]; cell line MDAMB134V): 30.2 µM | GI50 ([2]; cell line MDAMB175V): 0.209 µM | GI50 ([2]; cell line SUM1315MO): 2.95 µM

CS(=O)(=O)CCNCc1ccc(-c2ccc3ncnc(Nc4ccc(OCc5cccc(F)c5)c(Cl)c4)c3c2)o1 [Lapatinib]
Subtype specificity [1]: Luminal/ERBB2AMP | GI50 ([2]; AU565, cell line AU565, censored GI50 values): 0.398 µM | GI50 ([2]; AU565, cell line AU565): 0.398 µM | GI50 ([2]; BT-20, cell line BT20): 16.6 µM | GI50 ([2]; BT-474, cell line BT474, censored GI50 values): 0.398 µM | GI50 ([2]; BT-474, cell line BT474): 0.398 µM | GI50 ([2]; BT-483, cell line BT483): 16.6 µM | GI50 ([2]; BT-549, cell line BT549): 16.6 µM | GI50 ([2]; CAMA-1, cell line CAMA1): 16.6 µM | GI50 ([2]; HCC38, cell line HCC38): 16.6 µM | GI50 ([2]; HCC70, cell line HCC70): 11 µM | GI50 ([2]; HCC202, cell line HCC202, censored GI50 values): 0.759 µM | GI50 ([2]; HCC202, cell line HCC202): 0.759 µM | GI50 ([2]; HCC1143, cell line HCC1143): 16.6 µM | GI50 ([2]; HCC1187, cell line HCC1187): 16.6 µM | GI50 ([2]; HCC1395, cell line HCC1395): 16.6 µM | GI50 ([2]; HCC1419, cell line HCC1419, censored GI50 values): 0.269 µM | GI50 ([2]; HCC1419, cell line HCC1419): 0.269 µM | GI50 ([2]; HCC1428, cell line HCC1428): 16.6 µM | GI50 ([2]; HCC1500, cell line HCC1500): 16.6 µM | GI50 ([2]; HCC1806, cell line HCC1806): 16.6 µM | GI50 ([2]; HCC1937, cell line HCC1937): 16.6 µM | GI50 ([2]; HCC1954, cell line HCC1954, censored GI50 values): 2.75 µM | GI50 ([2]; HCC1954, cell line HCC1954): 2.75 µM | GI50 ([2]; MCF7, cell line MCF7): 16.6 µM | GI50 ([2]; MDA-MB-157, cell line MDAMB157): 16.6 µM | GI50 ([2]; MDA-MB-175-VII, cell line MDAMB175VII, censored GI50 values): 0.933 µM | GI50 ([2]; MDA-MB-231, cell line MDAMB231): 16.6 µM | GI50 ([2]; MDA-MB-361, cell line MDAMB361, censored GI50 values): 8.91 µM | GI50 ([2]; MDA-MB-361, cell line MDAMB361): 8.91 µM | GI50 ([2]; MDA-MB-436, cell line MDAMB436): 16.6 µM | GI50 ([2]; MDA-MB-453, cell line MDAMB453, censored GI50 values): 8.91 µM | GI50 ([2]; MDA-MB-453, cell line MDAMB453): 8.91 µM | GI50 ([2]; MDA-MB-468, cell line MDAMB468): 16.6 µM | GI50 ([2]; SK-BR-3, cell line SKBR3, censored GI50 values): 0.513 µM | GI50 ([2]; SK-BR-3, cell line SKBR3): 0.513 µM | GI50 ([2]; SUM52PE, cell line SUM52PE): 16.6 µM | GI50 ([2]; SUM225CWN, cell line SUM225CWN, censored GI50 values): 0.692 µM | GI50 ([2]; SUM225CWN, cell line SUM225CWN): 0.692 µM | GI50 ([2]; T47D, cell line T47D): 16.6 µM | GI50 ([2]; UACC-812, cell line UACC812, censored GI50 values): 0.457 µM | GI50 ([2]; UACC-812, cell line UACC812): 0.457 µM | GI50 ([2]; UACC-893, cell line UACC893, censored GI50 values): 1.82 µM | GI50 ([2]; UACC-893, cell line UACC893): 1.82 µM | GI50 ([2]; ZR-75-1, cell line ZR751): 16.6 µM | GI50 ([2]; ZR-75B, cell line ZR75B): 16.6 µM | GI50 ([2]; cell line 600MPE): 16.6 µM | GI50 ([2]; cell line HCC2185, censored GI50 values): 3.8 µM | GI50 ([2]; cell line HCC2185): 3.8 µM | GI50 ([2]; cell line HCC3153): 16.6 µM | GI50 ([2]; cell line MDAMB175V): 0.933 µM | GI50 ([2]; cell line SUM1315MO): 15.5 µM
